The record followed here is US9187497B2, “Substituted pyrido[3,2-e]pyrrolo[1,2-a]pyrazines as inhibitors of poly(ADP-ribose)polymerase (PARP)” (Takeda Phamaceutical Company Limited, priority 2009, dated 2015).

SMILES strings stand for the structures.

For one assay, the system named is Jurkat cell line. In words: PARP cellular chemopotentiation assay (MTS cell viability with and without TMZ). In kind it is cell-based. The settings on record: ratio of EC50 for inhibition of cell viability without and with 100 μM TMZ; Jurkat cells, 96 hours of treatment. Here is the method: Potentiation Factor (PF50) Determination from PARP Cellular Chemopotentiation Assay
Jurkat cell line was maintained according to the supplier (American Type Culture Collection (Rockville, Md.)). Cells were seeded in 96-well tissue culture microplates at 10,000 cells per well and cultured for 24 hours prior to addition of compounds, TMZ (Temozolomide) or DMSO (dimethylsulfoxide) vehicle. After 96 hours of treatment, the conversion of MTS ([3-(4,5-dimethylthiazol-2-yl)-5-(3-carboxymethoxyphenyl)-2-(4-sulfophenyl)-2H-tetrazolium, inner salt], Promega, Madison, Wis.) by metabolically active cells was determined through measuring the OD490 nm with a Spectramax microplate reader (Molecular Devices, San Diego, Calif.). To generate concentration-response curves, cells were treated in duplicate with a range of serial compound dilutions (final DMSO concentration was 0.5%) in the absence or presence of 100 μM TMZ chemoreagent. The percentage of viable cells per well was calculated by correction for background and normalizing against DMSO-treated cells. EC50 values for inhibition of cell viability were calculated using XLfit4 MicroSoft Excel curve-fitting software. Chemopotentiation factor PF50 was calculated as the ratio of EC50 values of cells co-treated without and with TMZ, respectively.

In a further assay the target is T1, PARP (Homo sapiens, UniProt P09874).
T1 construct: purchased Trevigen 4684-096-01 (enzyme); kit 4684-096-K HT
Kind of assay: PARP ELISA colorimetric assay of inhibition of PARP catalytic activity (IC50). In kind it is biochemical. The settings on record: pIC50=-log(IC50), IC50 in molar concentration; ELISA-based PARP kit, 10 minutes of catalysis. Here is the method:
Inhibition Constant (IC50) from PARP ELISA
Inhibition of PARP catalytic activity was determined by use of an ELISA-based colorimetric PARP/Apoptosis Assay kit (part number 4684-096-K HT, Trevigen). To each histone coated well in the 96-well plate supplied by the manufacturer (part number 4677-096-P) is added 39 μl of PARP buffer (part number 4671-096-02) and 1 μl of test compound dissolved in DMSO (diluted serially 3-fold 11 times). After mixing, 5 μl of 0.1 nM PARP (part number 4684-096-01) is added and the solution allowed to stand at ambient temperature for 10 minutes. PARP catalysis is initiated with the addition of 5 μl of 100 μM β-nicotinamide adenine dinucleotide (NAD+) (part number 4684-096-02) with activated DNA (part number 4671-096-06). After 10 minutes of catalysis the reaction is quenched by solvent aspiration followed by irrigation of the assay wells 4 times with phosphate buffered saline (PBS) containing 0.1% t-Octylphenoxypolyethoxyethanol (Triton® X-100). Mouse Anti-poly ADP ribose (PAR) monoclonal antibody, goat antimouse immunoglobulin G (IgG)-horse radish peroxidase (HRP) conjugate and HRP substrate are added according to the manufacture's specifications to generate a colorimetric signal proportional to PARP catalytic activity. An IC50 for the test compound is calculated from the equation Absorbance=(Amax−background)/(1+([cmpd]/IC50)^n)+background fit to the 12 point test compound concentration gradient via nonlinear least squares.

T1 sequence (P09874 whole entry): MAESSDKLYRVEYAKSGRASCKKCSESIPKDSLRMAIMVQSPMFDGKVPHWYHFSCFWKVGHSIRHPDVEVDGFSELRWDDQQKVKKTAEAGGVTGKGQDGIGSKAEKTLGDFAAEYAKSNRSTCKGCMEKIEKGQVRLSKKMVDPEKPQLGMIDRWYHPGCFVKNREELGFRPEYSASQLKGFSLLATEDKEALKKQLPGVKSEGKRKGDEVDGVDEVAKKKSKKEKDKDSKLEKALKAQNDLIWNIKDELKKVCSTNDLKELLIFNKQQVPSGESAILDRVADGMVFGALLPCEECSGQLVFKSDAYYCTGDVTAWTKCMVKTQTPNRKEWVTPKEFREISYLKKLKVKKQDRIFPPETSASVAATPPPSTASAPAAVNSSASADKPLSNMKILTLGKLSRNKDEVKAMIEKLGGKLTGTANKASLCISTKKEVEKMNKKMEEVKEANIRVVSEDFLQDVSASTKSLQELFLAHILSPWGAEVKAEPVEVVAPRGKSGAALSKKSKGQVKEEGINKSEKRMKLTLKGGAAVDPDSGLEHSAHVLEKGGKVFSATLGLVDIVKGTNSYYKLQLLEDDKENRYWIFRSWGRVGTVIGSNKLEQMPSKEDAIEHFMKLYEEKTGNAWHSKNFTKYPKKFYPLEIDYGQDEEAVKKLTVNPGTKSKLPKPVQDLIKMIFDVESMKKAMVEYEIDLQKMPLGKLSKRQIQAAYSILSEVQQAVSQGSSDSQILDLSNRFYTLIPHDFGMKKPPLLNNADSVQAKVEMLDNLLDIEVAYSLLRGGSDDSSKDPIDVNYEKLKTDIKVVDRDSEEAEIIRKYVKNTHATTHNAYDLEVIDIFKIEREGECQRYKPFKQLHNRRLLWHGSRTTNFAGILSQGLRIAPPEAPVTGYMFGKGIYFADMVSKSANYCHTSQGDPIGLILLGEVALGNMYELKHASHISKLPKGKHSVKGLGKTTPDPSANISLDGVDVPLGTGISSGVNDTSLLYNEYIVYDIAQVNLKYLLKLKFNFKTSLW

As for `O=C1Nc2cc(CN3CC=C(c4ccc(Cl)cc4)CC3)cnc2N2CCC[C@H]12` [Compound 49, (R)-3-((4-(4-chlorophenyl)-5,6-dihydropyridin-1(2H)-yl)methyl)-6a,7,8,9-tetrahydropyrido[3,2-e]pyrrolo[1,2-a]pyrazin-6(5H)-one], the PF50 result in the assay with Jurkat cell line is listed as “≧0”.
Still for that read-out and setting: the same measure for `O=C1Nc2cc(CN3CCN(c4ccc(Cl)cc4)CC3)cnc2N2CCC[C@H]12` [Compound 50, (R)-3-((4-(4-chlorophenyl)piperazin-1-yl)methyl)-6a,7,8,9-tetrahydropyrido[3,2-e]pyrrolo[1,2-a]pyrazin-6(5H)-one]: “≧0”; for `O=C1Nc2cc(CN3CCC(c4ccc(Cl)cc4)CC3)cnc2N2CCC[C@H]12` [Compound 51, (R)-3-((4-(4-chlorophenyl)piperidin-1-yl)methyl)-6a,7,8,9-tetrahydropyrido[3,2-e]pyrrolo[1,2-a]pyrazin-6(5H)-one]: “≧0”.
In the case of `CC(C)NC(=O)c1ccc(N2CCN(Cc3cnc4c(c3)NC(=O)[C@@H]3CCCCN43)CC2)nc1` [Compound 76, (S)—N-isopropyl-6-(4-((6-oxo-6,6a,7,8,9,10-hexahydro-5H-dipyrido[1,2-a:3′,2′-e]pyrazin-3-yl)methyl)piperazin-1-yl)nicotinamide], the PF50 entry in the assay with Jurkat cell line was “≧0”.
`CCNC(=O)c1ccc(N2CCN(Cc3cnc4c(c3)NC(=O)[C@@H]3CCCCN43)CC2)nc1` [Compound 78, (S)—N-ethyl-6-(4-((6-oxo-6,6a,7,8,9,10-hexahydro-5H-dipyrido[1,2-a:3′,2′-e]pyrazin-3-yl)methyl)piperazin-1-yl)nicotinamide]: the PF50 in the assay on Jurkat cell line is recorded as over 10.
The same measure, in the same setting: the same measure for `O=C(NC1CC1)c1ccc(N2CCN(Cc3cnc4c(c3)NC(=O)[C@@H]3CCCCN43)CC2)nc1` [Compound 79, (S)—N-cyclopropyl-6-(4-((6-oxo-6,6a,7,8,9,10-hexahydro-5H-dipyrido[1,2-a:3′,2′-e]pyrazin-3-yl)methyl)piperazin-1-yl)nicotinamide]: over 10; for `N#Cc1ccc(N2CCN(Cc3cnc4c(c3)NC(=O)[C@@H]3CSCCN43)CC2)nc1` [Compound 89, (R)-6-(4-((6-oxo-5,6,6a,7,9,10-hexahydropyrido[3,2-e][1,4]thiazino[4,3-a]pyrazin-3-yl)methyl)piperazin-1-yl)nicotinonitrile]: over 10; for `O=C1Nc2cc(CN3CC=C(c4ccc(Cl)cc4)CC3)cnc2N2CCSC[C@@H]12` [Compound 91, (R)-3-((4-(4-chlorophenyl)-5,6-dihydropyridin-1(2H)-yl)methyl)-6a,7,9,10-tetrahydropyrido[3,2-e][1,4]thiazino[4,3-a]pyrazin-6(5H)-one]: over 2000.
On the same count and under the same terms, under `O=C1Nc2cc(CN3CCN(c4ccc(Cl)cc4)CC3)cnc2N2CCOCC12` (stereo not drawn) [Compound 93, 3-((4-(4-chlorophenyl)piperazin-1-yl)methyl)-6a,7,9,10-tetrahydro-[1,4]oxazino[4,3-a]pyrido[3,2-e]pyrazin-6(5H)-one] stands “≧0”.
Molecule `CC(C)N1CC(=O)Nc2cc(CN3CCC(c4ccc(Cl)cc4)CC3)cnc21` [Compound 96, 7-((4-(4-chlorophenyl)piperidin-1-yl)methyl)-4-isopropyl-3,4-dihydropyrido[2,3-b]pyrazin-2(1H)-one] showed a half-inhibitory concentration (IC50) against PARP of at least 50.1 nM.
In the case of `CN1CCN2c3ncc(CN4CCN(c5ccc(Cl)cc5)CC4)cc3NC(=O)C2C1` (stereo not drawn) [Compound 97, 7-[4-(4-Chloro-phenyl)-piperazin-1-ylmethyl]-2-methyl-1,3,4,10a-tetrahydro-2H,9H-2,4a,5,9-tetraaza-phenanthren-10-one], in the assay on Jurkat cell line, the PF50 entry is given as “≧0”.
As for `CNC(=O)c1ccc(N2CCN(Cc3cnc4c(c3)NC(=O)[C@@H]3CSCCN43)CC2)cc1` [Compound 98, (R)—N-methyl-4-(4-((6-oxo-5,6,6a,7,9,10-hexahydropyrido[3,2-e][1,4]thiazino[4,3-a]pyrazin-3-yl)methyl)piperazin-1-yl)benzamide], in the assay on Jurkat cell line, the PF50 was over 5000.
Regarding `O=C(NC1CC1)c1ccc(N2CCN(Cc3cnc4c(c3)NC(=O)[C@@H]3CSCCN43)CC2)cc1` [Compound 99, (R)—N-cyclopropyl-4-(4-((6-oxo-5,6,6a,7,9,10-hexahydropyrido[3,2-e][1,4]thiazino[4,3-a]pyrazin-3-yl)methyl)piperazin-1-yl)benzamide], the PF50 in the assay with Jurkat cell line is given as over 5000.
Turning to `N#Cc1ccc(N2CCN(Cc3cnc4c(c3)NC(=O)C3COCCN43)CC2)nc1` (stereo not drawn) [Compound 100, 6-(4-((6-oxo-5,6,6a,7,9,10-hexahydro-[1,4]oxazino[4,3-a]pyrido[3,2-e]pyrazin-3-yl)methyl)piperazin-1-yl)nicotinonitrile], in the assay with Jurkat cell line, the PF50 is over 10.
Turning to `CCOC(=O)c1ccc(N2CCN(Cc3cnc4c(c3)NC(=O)[C@@H]3CCCN43)CC2)nc1` [Compound 121, (S)-ethyl 6-(4-((6-oxo-5,6,6a,7,8,9-hexahydropyrido[3,2-e]pyrrolo[1,2-a]pyrazin-3-yl)methyl)piperazin-1-yl)nicotinate], the IC50 at PARP was 15.8 to 39.8 nM.
Same read-out and setting: under `COc1cc(-c2ccc(N3CCN(Cc4cnc5c(c4)NC(=O)[C@@H]4CCCCN54)CC3)cc2)ccn1` [Compound 144, (S)-3-((4-(4-(2-methoxypyridin-4-yl)phenyl)piperazin-1-yl)methyl)-7,8,9,10-tetrahydro-5H-dipyrido[1,2-a:3′,2′-e]pyrazin-6(6aH)-one] stands at least 50.1 nM.
On to `Nc1cccc(-c2ccc(N3CCN(Cc4cnc5c(c4)NC(=O)[C@@H]4CCCCN54)CC3)cc2)n1` [Compound 145, (S)-3-((4-(4-(6-aminopyridin-2-yl)phenyl)piperazin-1-yl)methyl)-7,8,9,10-tetrahydro-5H-dipyrido[1,2-a:3′,2′-e]pyrazin-6(6aH)-one], for which the IC50 against PARP was at least 50.1 nM.
As to `O=C1Nc2cc(CN3CCN(c4ccc(-c5ccsc5)cc4)CC3)cnc2N2CCCC[C@@H]12` [Compound 146, (S)-3-((4-(4-(thiophen-3-yl)phenyl)piperazin-1-yl)methyl)-7,8,9,10-tetrahydro-5H-dipyrido[1,2-a:3′,2′-e]pyrazin-6(6aH)-one], the half-inhibitory concentration (IC50) against PARP is 15.8 to 39.8 nM.
The same measure, in the same setting: the same measure for `O=C1Nc2cc(CN3CCN(c4ccc(-c5cccs5)cc4)CC3)cnc2N2CCCC[C@@H]12` [Compound 147, (S)-3-((4-(4-(thiophen-2-yl)phenyl)piperazin-1-yl)methyl)-7,8,9,10-tetrahydro-5H-dipyrido[1,2-a:3′,2′-e]pyrazin-6(6aH)-one]: at least 50.1 nM.
Same read-out and setting: under `O=C1Nc2cc(CN3CCN(c4ccc(-c5ccncc5)cc4)CC3)cnc2N2CCCC[C@@H]12` [Compound 148, (S)-3-((4-(4-(pyridin-4-yl)phenyl)piperazin-1-yl)methyl)-7,8,9,10-tetrahydro-5H-dipyrido[1,2-a:3′,2′-e]pyrazin-6(6aH)-one] stands 15.8 to 39.8 nM.
Same read-out and setting: under `O=C1Nc2cc(CN3CCN(c4ccc(-c5ccccc5)cc4)CC3)cnc2N2CCCC[C@@H]12` [Compound 149, (S)-3-((4-(biphenyl-4-yl)piperazin-1-yl)methyl)-7,8,9,10-tetrahydro-5H-dipyrido[1,2-a:3′,2′-e]pyrazin-6(6aH)-one] stands at least 50.1 nM; under `COc1ccc(-c2ccc(N3CCN(Cc4cnc5c(c4)NC(=O)[C@@H]4CCCCN54)CC3)cc2)cn1` [Compound 150, (S)-3-((4-(4-(6-methoxypyridin-3-yl)phenyl)piperazin-1-yl)methyl)-7,8,9,10-tetrahydro-5H-dipyrido[1,2-a:3′,2′-e]pyrazin-6(6aH)-one], at least 50.1 nM.
As to `O=C1Nc2cc(CN3CCN(c4ccc(-c5cncnc5)cc4)CC3)cnc2N2CCCC[C@@H]12` [Compound 151, (S)-3-((4-(4-(pyrimidin-5-yl)phenyl)piperazin-1-yl)methyl)-7,8,9,10-tetrahydro-5H-dipyrido[1,2-a:3′,2′-e]pyrazin-6(6aH)-one], the IC50 at PARP was at least 50.1 nM.
With `COc1ncc(-c2ccc(N3CCN(Cc4cnc5c(c4)NC(=O)[C@@H]4CCCCN54)CC3)cc2)cn1` [Compound 152, (S)-3-((4-(4-(2-methoxypyrimidin-5-yl)phenyl)piperazin-1-yl)methyl)-7,8,9,10-tetrahydro-5H-dipyrido[1,2-a:3′,2′-e]pyrazin-6(6aH)-one], the IC50 against PARP is 15.8 to 39.8 nM.
